Data from patent US5961483A, “Iontophoretic delivery of cell adhesion inhibitors” (priority 1997, dated 1999).
≈ marks a conversion by molar mass, not a printed value. Where “and” joins values, the source holds several entries; their conditions need not be identical. Identical values can stand only once. Counter-ions that a name gives are not always drawn.

Assays:
[1] = Physicochemical properties; settings: pH 4
[2] = In vivo swine experiments (iontophoretic delivery, plasma levels; comparison with constant IV infusion); set-up: species or system Yorkshire swine
Experimental: Patch Design: Same as in Example 1.
Experimental Protocol: In each experiment, the patches were loaded with a 20 mg/mL solution of the same IIb/IIIa antagonist used in Example 1 in 154 mM saline, immediately before application to the skin of the animals. Unanesthetized Yorkshire swine with weights of about 20 to 35 kg were used. The skin sites receiving the patches were wiped clean with moist gauze pads. Patches were overwrapped with an adhesive, elastic wrap to hold the patches in place. Separate constant current (100 μA) power supplies were provided for each iontophoresis patch system. Current and voltage readings were made and recorded by on-board dataloggers (Fluke databuckets).
Blood samples were withdrawn from the vena cava through an IV catheter into VACUTAINER™ blood collection tubes containing EDTA. After gentle mixing, the tubes were centrifuged to separate the plasma, which was transferred to clean polypropylene tubes and frozen on dry ice. Frozen samples were stored at -80° C. until assayed.
Results: FIGS. 4 and 5 provide a comparative illustration of the in vivo delivery of the GPIIb/IIIa antagonist (mentioned in Example 1) to pigs using constant IV infusion (FIG. 4) and constant iontophoresis (FIG. 5). IV infusion employed the acid form of the drug at an infusion rate of 10 μg/h.

[3] = In vitro excised skin iontophoretic delivery (flow-through cells); type: in vitro ADME, porcine; settings: for delivery rate (FIG. 7): 50 mg/mL chloride salt
Experimental: Patch Designs: The 2 compartment patch design includes an absorbent drug reservoir with 2 cm^2 skin-contacting area and volume of 0.30 mL. The drug reservoir is separated from the electrode compartment with a 100 MWCO ultrafiltration membrane. The electrode compartment included a silver anode and cation exchange media in a hydrogel. A monolithic patch design was also used, consisting of a sandwich composed of a silver anode in the middle of 2 layers of absorbent material. The patches are assembled and loaded with the dosing solution just before applying to the skin.
Experimental Protocol: The iontophoretic delivery of a GPIIb/IIIa antagonist was carried out in a flow-through in vitro system. […] The patch was loaded a 10 mg/mL solution of the IIb/IIIa antagonist in 154 mM saline.
A silver chloride mesh return cathode was located upstream of the polycarbonate flow-through cells. Freshly dermatomed (1 mm) porcine skin was mounted in the cells on a porous support. The patches were dosed with aqueous solutions of the drug and then placed on top of the excised skin. The patches were secured by a spring-loaded mechanism that maintained even pressure over the patch. The cells were "perfused" by means of a peristaltic pump which pulls receiver solution through them. Effluents from the cells were collected with a fraction collector. Flow rates were typically 0.25 mL/min. The receiver solution was an isotonic pH 7.4 buffered saline solution containing 10 mM HEPES, 100 mM NaCl, PEG 400, and a surfactant, Pluronic P-103. lontophoresis current (50 μA) was provided by WPI power cells, and the applied currents and cell voltages were recorded with a Fluke databucket.
Results: The effluent receiver solution was measured in a series of six runs, to determine whether the ester was hydrolyzed during the period of the iontophoresis. Results were obtained by means of liquid scintillation counting (radioactivity), and HPLC-UV. The HPLC results are estimates based on calibration for the ester form only.
Patches: A dual compartment 2 cm^2 patch design, loaded with 100 mg/mL of the GPIIb/IIIa antagonist of Example 1, with a size exclusion or anion exchange membrane separator.
Experimental Protocol: See Example 1, with current applied at 400 μA.
Patches: A dual compartment 2 cm^2 patch design, loaded with 50 mg/mL chloride salt of the IIb/IIIa antagonist.
Experimental Protocol: See Example 1, current applied at 100 μA and 200 μA.
Patches: A dual compartment 2 cm^2 patch design, loaded with either: (1) a 1 mM NaCl, 150 mg/mL formulation of the IIb/IIIa antagonist of Example 1, or (2) a 75 mM NaCl, 100 mg/mL formulation of the drug.
Experimental Protocol: See Example 1, current applied at 100 μA for the 1 mM NaCl sample, and at 400 μA for the 75 mM NaCl sample.

[4] = Assay of extracts of the patch following completion of iontophoresis; type: in vitro ADME

In the case of `CCCCOC(=O)N[C@@H](CNC(=O)C[C@H]1CC(c2ccc(C(=N)N)cc2)=NO1)C(=O)OC` [GPIIb/IIIa antagonist, methyl-N^3-[2-{3-(4-formamidinophenyl)-isoxazolin-5(R)-yl}-acetyl]-N^2-(n-butyloxycarbonyl)-2,3-(S)-diaminopropanoate], the solubility [1] is reported as 80 mg/mL (≈ 179 mM), the “variability in plasma levels with iontophoresis” value ([2]; 20 mg/mL in 154 mM saline patch) is reported as “extremely low” and the “blood levels, iontophoresis compared with constant IV infusion (FIGS. 4 and 5)” value ([2]; 20 mg/mL in 154 mM saline patch vs acid form IV at 10 μg/h, plasma acid drug form) is reported as “similar”. The “constancy of flux (FIG. 3)” value [3] was “very constant over the 24 hour period”, the “delivery rate profile (FIG. 8)” value ([3]; 1 mM NaCl, 150 mg/mL at 100 μA and 75 mM NaCl, 100 mg/mL at 400 μA, 24 hour iontophoresis) was “much more uniform delivery rates” and the “dependence of in vitro delivery on current (FIG. 3)” value ([3]; 10 mg/mL drug, 9 mg/mL NaCl) was “proportional to increase in current”. The “variability in delivery from skin to skin (FIG. 2)” value ([3]; 10 mg/mL, 154 mM NaCl, 50 μA) was “unexpectedly low”, the “delivery, anion exchange compared with size exclusion membrane patch (FIG. 6)” value ([3]; dual compartment 2 cm^2 patch, 100 mg/mL, 400 μA) was “somewhat greater delivery” and the “delivery rate profile (FIG. 6)” value ([3]; dual compartment patches, 100 mg/mL, 400 μA) was “the flux starts high, and falls as electrolyte cations accumulate with time”. The “Total (Liquid Scintillation Assay)” value ([3]; effluent receiver solution, 10 mg/mL in 154 mM saline, 50 μA, six runs (sample 1-6)) was 4.76 µg/mL and 4.15 µg/mL and 4.05 µg/mL and 4.87 µg/mL and 5.56 µg/mL and 5.19 µg/mL, the “metabolism of the positively charged ester to the uncharged zwitterion” value ([3]; in the skin or receptor fluid) was “metabolized, to some extent” and the “acid hydrolysis product in extracts of the patch” value [4] was “no detectable acid hydrolysis product”.

For `CCCCOC(=O)N[C@@H](CNC(=O)C[C@H]1CC(c2ccc(C(=N)N)cc2)=NO1)C(=O)OC` [chloride salt of the IIb/IIIa antagonist], the “delivery rate (FIG. 7)” value ([3]; 100 μA, nearly flat delivery) was 10 to 20 µg/h and the “delivery rate (FIG. 7)” value ([3]; 200 μA, nearly constant delivery) was 20 to 35 µg/h.
